{"source": "patent US20080194658A1", "about": "“Sterol Carrier Protein-2 Inhibitors for Lowering Cholesterol and Triglyceride Levels in Mammals” (priority 2006, published 2008)", "key": {"rats [1]": {"tested_on": "rats", "assay": "Total serum cholesterol levels in rats", "format": "in vivo, rat", "settings": "oral, varying concentrations for 5 days, all treated animals (FIG. 2)", "method": "(§1) Mammalian species (i.e., rats) were used. Rats were fed a standard diet (3.5% fat, <0.02% cholesterol). Weaned rats were grouped into treated and controls. Rats were chosen as the testing animal so that 0.5 ml of blood samples could be taken for testing. Rats were anesthetized first in an induction chamber with isoflurane and oxygen (100%). Once anesthetized rats were positioned dorsally for the blood draw from the jugular or ventral tail vein. An anesthetic nose-cone was placed on the nose of the rat allowing isoflurane and oxygen (100%) to be delivered through a Bain circuit. After obtaining blood, the rats were allowed to recover in a shoebox cage with a heat lamp positioned over the top of the cage. Once the rats were awake and moving freely around the recovery cage, they are placed back in their normal cages. Total time for procedure is ˜15-20 minutes per rat.\nN-(4-{[4-(3,4-dichlorophenyl)-1,3-thiazol-2-yl]amino}phenyl)acetamide hydrobromide was mixed with DMSO (solvent) in increasing dosages, which were feed to laboratory rats. Rats received the preparations via oral drops. Daily observations were recorded concerning (i) weight changes and (ii) mortality. Blood samples were taken every three weeks for testing cholesterol levels and for testing Alanine Aminotransferase (ALT) for liver function. […]"}, "rats [2]": {"tested_on": "rats", "assay": "Serum ALT levels in rats (liver function)", "format": "in vivo", "settings": "oral, various dosages for 5 days (FIG. 3)", "method": "as §1\nN-(4-{[4-(3,4-dichlorophenyl)-1,3-thiazol-2-yl]amino}phenyl)acetamide hydrobromide was mixed with DMSO (solvent) in increasing dosages, which were feed to laboratory rats. Rats received the preparations via oral drops. Daily observations were recorded concerning (i) weight changes and (ii) mortality. […]\nThe vertebrate SCP-2 is involved in cholesterol metabolism, therefore, cholesterol homeostasis is advantageously monitored when SCP-2 inhibitors are tested in mammalian species. […]"}, "[3]": {"assay": "Growth rate of young rats upon oral administration", "format": "in vivo", "settings": "young rats starting at 20 days of age, 5 days/week at various dosages (FIG. 1)", "method": "FIG. 1 is a graph showing growth rates of young rats (starting at 20 days of age) upon oral administration of N-(4-{[4-(3,4-dichlorophenyl)-1,3-thiazol-2-yl]amino}phenyl)acetamide hydrobromide, whereby the effect on growth rate was insignificant, whereby the drug was administered 5 days/week at various dosages, whereby weight was measured every day during the treatment regimen (Monday-Friday), whereby the data is shown in three groups to compensate for variations in growth rate as the animals aged, whereby the listed days represent the number of days after the initial first administration, and whereby the bars represent the average growth rate±Standard deviation.\nMammalian species (i.e., rats) were used. Rats were fed a standard diet (3.5% fat, <0.02% cholesterol). Weaned rats were grouped into treated and controls. Rats were chosen as the testing animal so that 0.5 ml of blood samples could be taken for testing. Rats were anesthetized first in an induction chamber with isoflurane and oxygen (100%). Once anesthetized rats were positioned dorsally for the blood draw from the jugular or ventral tail vein. […]\nN-(4-{[4-(3,4-dichlorophenyl)-1,3-thiazol-2-yl]amino}phenyl)acetamide hydrobromide was mixed with DMSO (solvent) in increasing dosages, which were feed to laboratory rats. […] Daily observations were recorded concerning (i) weight changes and (ii) mortality. […]"}}, "data": [{"smiles": "Br.CC(=O)Nc1ccc(Nc2nc(-c3ccc(Cl)c(Cl)c3)cs2)cc1", "note": "[N-(4-{[4-(3,4-dichlorophenyl)-1,3-thiazol-2-yl]amino}phenyl)acetamide hydrobromide]", "values": [{"measurement": "total serum cholesterol levels", "setting": "rats [1]", "result": "significant decrease"}, {"measurement": "serum ALT levels, control (0 mg/kg) vs treated animals", "setting": "rats [2]", "result": "no significant difference"}, {"measurement": "effect on growth rate", "setting": "[3]", "result": "insignificant"}]}]}
